Reference: ChEMBL document CHEMBL3885881, “DrugMatrix”

Species on record: Rattus norvegicus
Assay: DrugMatrix - Regimen: Daily Repeat
Assay type: toxicity, organism-based, Sprague-Dawley
Set-up: regimen Daily Repeat, gender Male, age 6-8 weeks
Settings: in vivo, po, route oral GAVAGE, vehicle .5 % CMC; for ABSOLUTE BASOPHIL / ABSOLUTE EOSINOPHIL / ABSOLUTE LYMPHOCYTE / ABSOLUTE MONOCYTE / ABSOLUTE SEGMENTED NEUTROPHIL / BASOPHIL / EOSINOPHIL / ERYTHROCYTE COUNT / HEMATOCRIT / HEMOGLOBIN / LEUKOCYTE COUNT / LYMPHOCYTE / MEAN CORPUSCULAR HEMOGLOBIN / MEAN CORPUSCULAR HEMOGLOBIN CONCENTRATION / MEAN CORPUSCULAR VOLUME / MONOCYTE / NEUTROPHIL / NUCLEATED RED BLOOD CELLS / PLATELET COUNT: tissue Blood; for ALANINE AMINOTRANSFERASE / ALBUMIN / ALKALINE PHOSPHATASE / ASPARTATE AMINOTRANSFERASE / BLOOD UREA NITROGEN / CARBON DIOXIDE / CHLORIDE / CHOLESTEROL / CREATINE PHOSPHOKINASE / CREATININE / GLUCOSE / LACTATE DEHYDROGENASE / LIPASE / PHOSPHORUS / POTASSIUM / SODIUM / TOTAL BILIRUBIN / TOTAL PROTEIN / URIC ACID: tissue Plasma
[1] = 200 mg/kg, 72 h, dose level Low, time 3 day
[2] = 200 mg/kg, 120 h, dose level Low, time 5 day
[3] = 1000 mg/kg, 72 h, dose level High, time 3 day
[4] = 1000 mg/kg, 120 h, dose level High, time 5 day

c1ccc(Nc2ccc(Nc3ccccc3)cc2)cc1
ABSOLUTE BASOPHIL [1]: 0 CELLS/uL | ABSOLUTE EOSINOPHIL [1]: 237 CELLS/uL | ABSOLUTE LYMPHOCYTE [1]: 13213.33 CELLS/uL | ABSOLUTE MONOCYTE [1]: 291.33 CELLS/uL | ABSOLUTE SEGMENTED NEUTROPHIL [1]: 1225 CELLS/uL | BASOPHIL [1]: 0% | EOSINOPHIL [1]: 1.67% | ERYTHROCYTE COUNT [1]: 5.4 x10E6/uL | HEMATOCRIT [1]: 33.57% | HEMOGLOBIN [1]: 12.87 G/DL | LEUKOCYTE COUNT [1]: 14.97 x10E3/uL | LYMPHOCYTE [1]: 88% | MEAN CORPUSCULAR HEMOGLOBIN [1]: 23.83 pg | MEAN CORPUSCULAR HEMOGLOBIN CONCENTRATION [1]: 38.33 G/DL | MEAN CORPUSCULAR VOLUME [1]: 62.2 fL | MONOCYTE [1]: 2% | NEUTROPHIL [1]: 8.33% | NUCLEATED RED BLOOD CELLS [1]: 0 /100WBC | PLATELET COUNT [1]: 1471 x10E3/uL | ALANINE AMINOTRANSFERASE [1]: 46.67 u/L | ALBUMIN [1]: 4.2 G/DL | ALKALINE PHOSPHATASE [1]: 353.67 u/L | ASPARTATE AMINOTRANSFERASE [1]: 106.33 u/L | BLOOD UREA NITROGEN [1]: 15 mg/dL | CARBON DIOXIDE [1]: 22 mmol/L | CHLORIDE [1]: 105.33 MEQ/L | CHOLESTEROL [1]: 67 mg/dL | CREATINE PHOSPHOKINASE [1]: 1002.33 u/L | CREATININE [1]: 0.23 mg/dL | GLUCOSE [1]: 178.33 mg/dL | LACTATE DEHYDROGENASE [1]: 537.67 u/L | LIPASE [1]: 9.33 u/L | PHOSPHORUS [1]: 12.7 mg/dL | POTASSIUM [1]: 6.26 MEQ/L | SODIUM [1]: 143.9 MEQ/L | TOTAL BILIRUBIN [1]: 0.23 mg/dL | TOTAL PROTEIN [1]: 5.57 G/DL | URIC ACID [1]: 1.87 mg/dL | ABSOLUTE BASOPHIL [2]: 0 CELLS/uL | ABSOLUTE EOSINOPHIL [2]: 45 CELLS/uL | ABSOLUTE LYMPHOCYTE [2]: 13082 CELLS/uL | ABSOLUTE MONOCYTE [2]: 237 CELLS/uL | ABSOLUTE SEGMENTED NEUTROPHIL [2]: 736 CELLS/uL | BASOPHIL [2]: 0% | EOSINOPHIL [2]: 0.33% | ERYTHROCYTE COUNT [2]: 5.63 x10E6/uL | HEMATOCRIT [2]: 36.07% | HEMOGLOBIN [2]: 13.67 G/DL | LEUKOCYTE COUNT [2]: 14.1 x10E3/uL | LYMPHOCYTE [2]: 92.67% | MEAN CORPUSCULAR HEMOGLOBIN [2]: 24.23 pg | MEAN CORPUSCULAR HEMOGLOBIN CONCENTRATION [2]: 37.93 G/DL | MEAN CORPUSCULAR VOLUME [2]: 63.97 fL | MONOCYTE [2]: 1.67% | NEUTROPHIL [2]: 5.33% | NUCLEATED RED BLOOD CELLS [2]: 0.33 /100WBC | PLATELET COUNT [2]: 1272.33 x10E3/uL | ALANINE AMINOTRANSFERASE [2]: 46 u/L | ALBUMIN [2]: 4.23 G/DL | ALKALINE PHOSPHATASE [2]: 349 u/L | ASPARTATE AMINOTRANSFERASE [2]: 77.67 u/L | BLOOD UREA NITROGEN [2]: 17 mg/dL | CARBON DIOXIDE [2]: 28 mmol/L | CHLORIDE [2]: 105.67 MEQ/L | CHOLESTEROL [2]: 70.67 mg/dL | CREATINE PHOSPHOKINASE [2]: 230.33 u/L | CREATININE [2]: 0.24 mg/dL | GLUCOSE [2]: 178 mg/dL | LACTATE DEHYDROGENASE [2]: 121.33 u/L | LIPASE [2]: 8.67 u/L | PHOSPHORUS [2]: 12.4 mg/dL | POTASSIUM [2]: 6.76 MEQ/L | SODIUM [2]: 148.13 MEQ/L | TOTAL BILIRUBIN [2]: 0.23 mg/dL | TOTAL PROTEIN [2]: 5.83 G/DL | URIC ACID [2]: 2 mg/dL | ABSOLUTE BASOPHIL [3]: 0 CELLS/uL | ABSOLUTE EOSINOPHIL [3]: 52.33 CELLS/uL | ABSOLUTE LYMPHOCYTE [3]: 13944 CELLS/uL | ABSOLUTE MONOCYTE [3]: 300.33 CELLS/uL | ABSOLUTE SEGMENTED NEUTROPHIL [3]: 1236.67 CELLS/uL | BASOPHIL [3]: 0% | EOSINOPHIL [3]: 0.33% | ERYTHROCYTE COUNT [3]: 5.47 x10E6/uL | HEMATOCRIT [3]: 34.97% | HEMOGLOBIN [3]: 13.1 G/DL | LEUKOCYTE COUNT [3]: 15.53 x10E3/uL | LYMPHOCYTE [3]: 89.67% | MEAN CORPUSCULAR HEMOGLOBIN [3]: 23.97 pg | MEAN CORPUSCULAR HEMOGLOBIN CONCENTRATION [3]: 37.47 G/DL | MEAN CORPUSCULAR VOLUME [3]: 63.93 fL | MONOCYTE [3]: 2% | NEUTROPHIL [3]: 8% | NUCLEATED RED BLOOD CELLS [3]: 0 /100WBC | PLATELET COUNT [3]: 1345 x10E3/uL | ALANINE AMINOTRANSFERASE [3]: 40 u/L | ALBUMIN [3]: 4.3 G/DL | ALKALINE PHOSPHATASE [3]: 405.33 u/L | ASPARTATE AMINOTRANSFERASE [3]: 83 u/L | BLOOD UREA NITROGEN [3]: 18.33 mg/dL | CARBON DIOXIDE [3]: 26.33 mmol/L | CHLORIDE [3]: 102.33 MEQ/L | CHOLESTEROL [3]: 78.33 mg/dL | CREATINE PHOSPHOKINASE [3]: 324.33 u/L | CREATININE [3]: 0.21 mg/dL | GLUCOSE [3]: 155.67 mg/dL | LACTATE DEHYDROGENASE [3]: 398 u/L | LIPASE [3]: 8.67 u/L | PHOSPHORUS [3]: 12.6 mg/dL | POTASSIUM [3]: 7.38 MEQ/L | SODIUM [3]: 144.77 MEQ/L | TOTAL BILIRUBIN [3]: 0.33 mg/dL | TOTAL PROTEIN [3]: 5.8 G/DL | URIC ACID [3]: 1.47 mg/dL | ABSOLUTE BASOPHIL [4]: 0 CELLS/uL | ABSOLUTE EOSINOPHIL [4]: 50 CELLS/uL | ABSOLUTE LYMPHOCYTE [4]: 13072 CELLS/uL | ABSOLUTE MONOCYTE [4]: 337.33 CELLS/uL | ABSOLUTE SEGMENTED NEUTROPHIL [4]: 907.33 CELLS/uL | BASOPHIL [4]: 0% | EOSINOPHIL [4]: 0.33% | ERYTHROCYTE COUNT [4]: 5.47 x10E6/uL | HEMATOCRIT [4]: 35.47% | HEMOGLOBIN [4]: 13.47 G/DL | LEUKOCYTE COUNT [4]: 14.37 x10E3/uL | LYMPHOCYTE [4]: 91% | MEAN CORPUSCULAR HEMOGLOBIN [4]: 24.77 pg | MEAN CORPUSCULAR HEMOGLOBIN CONCENTRATION [4]: 37.97 G/DL | MEAN CORPUSCULAR VOLUME [4]: 65.07 fL | MONOCYTE [4]: 2.33% | NEUTROPHIL [4]: 6.33% | NUCLEATED RED BLOOD CELLS [4]: 0 /100WBC | PLATELET COUNT [4]: 1396.67 x10E3/uL | ALANINE AMINOTRANSFERASE [4]: 42.33 u/L | ALBUMIN [4]: 4.23 G/DL | ALKALINE PHOSPHATASE [4]: 316.67 u/L | ASPARTATE AMINOTRANSFERASE [4]: 67 u/L | BLOOD UREA NITROGEN [4]: 16.33 mg/dL | CARBON DIOXIDE [4]: 29 mmol/L | CHLORIDE [4]: 105.67 MEQ/L | CHOLESTEROL [4]: 69.33 mg/dL | CREATINE PHOSPHOKINASE [4]: 202.33 u/L | CREATININE [4]: 0.25 mg/dL | GLUCOSE [4]: 159 mg/dL | LACTATE DEHYDROGENASE [4]: 84.33 u/L | LIPASE [4]: 9 u/L | PHOSPHORUS [4]: 12.27 mg/dL | POTASSIUM [4]: 6.19 MEQ/L | SODIUM [4]: 146.97 MEQ/L | TOTAL BILIRUBIN [4]: 0.33 mg/dL | TOTAL PROTEIN [4]: 5.83 G/DL | URIC ACID [4]: 1.73 mg/dL
